This is an account of results in publication PMC7582905, “Effect of Disulfide Cyclization of Ultrashort Cationic Lipopeptides on Antimicrobial Activity and Cytotoxicity” (International Journal of Molecular Sciences, 2020).

The assay relates to Candida albicans ATCC 10231. The assay can be described thus: Transmission electron microscopy (TEM). The assay is classed as cell-based. As to conditions: 2 × MIC, 5.0 × 10^6 CFU/mL, 1 h at room temperature. The protocol: TEM was used to examine ultrastructural changes in the Candida albicans ATCC 10231 cells treated with selected lipopeptides (L2, C2, L4, C4) and melittin (positive control). Fungal cells (Candida albicans ATCC 10231) were incubated in RMPI-1640 overnight. The cells were centrifuged (3500 rpm, 7 min) and resuspended in fresh RMPI-1640 medium to obtain dense cell suspension (5.0 × 10^6 CFU/mL). The high cell-density culture was prepared to facilitate TEM observations. Peptides’ concentrations were 2 × MIC. Samples were incubated for 1 h at room temperature. Importantly, MIC of selected peptides (L2, C2, L4, C4, and melittin) were also determined with dense inoculum of yeasts (5.0 × 10^6 CFU/mL). After the treatment, the fungal cells were centrifuged (3500× rpm, 10 min) and washed twice with PBS. Fungal cells were fixed with 2.5% glutaraldehyde buffered at pH 6.5 with 0.1 M sodium cacodylate (Polysciences, Warrington, PA, USA) for 6 h at room temperature. Postfixation was performed with a 1% osmium tetroxide (Polysciences, Warrington, PA, USA) solution for 2 h at 4 °C. The cells were then centrifuged and resuspended in 0.1 M cacodylate buffer (pH 6.5). After re-centrifugation, cells were dehydrated with ethanol. Yeasts were embedded in Epon 812 resin (Sigma-Aldrich) at room temperature. An ultramicrotome Leica UC7 was used to prepare ultrathin sections (55 nm). […]

Where a SMILES comes first, the peptide text is derived from it. Bridges are numbered along the chain shown (N, C = ends). The star is where a group is joined. Palmitoyl = CCCCCCCCCCCCCCCC(=O)*

As for `CCCCCCCCCCCCCCCC(=O)N[C@H]1CSSC[C@@H](C(N)=O)NC(=O)[C@H](CCCCN)NC(=O)[C@H](CCCCN)NC(=O)[C@H](CCCNC(=N)N)NC(=O)[C@H](CCCCN)NC1=O` [C4, C16-CKRKKC-NH2] (Palmitoyl-CKRKKC-NH2; disulfide 1-6), the “ultrastructural changes in TEM micrographs” value was “numerous vesicles are visible inside and outside the cell”.
